From patent publication US9738634B2, “Heterocyclic amide compound and herbicide” (SYNGENTA PARTICIPATIONS AG, priority 2013, dated 2017)

Experiments:
Assay type in all cases: in vivo
Details in all cases: treatment dosage 320 g/ha
barnyard grass [1] = assay: Test Example 1: weedkilling efficacy, preemergent weed treatment in the submerged state; A: barnyard grass
How it was run: (§1)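 Submerged pre-emergence treatment, water-surface application of compound emulsion at g/ha dosages; 4 cm flooded alluvial soil, weeds sown and 2.5-leaf rice transplanted same day. Rated after 3 weeks, greenhouse.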

bulrush [2] = assay: Test Example 1: weedkilling efficacy, preemergent weed treatment in the submerged state; B: bulrush
How it was run: as §1

oval-leafed pondweed [3] = assay: Test Example 1: weedkilling efficacy, preemergent weed treatment in the submerged state; C: oval-leafed pondweed
How it was run: as §1

transplanted rice = assay: Test Example 1: preemergent weed treatment in the submerged state, effect on crop; a: transplanted rice
How it was run: as §1

barnyard grass [4] = assay: Test Example 2: weedkilling efficacy, growth period weed treatment in the submerged state; A: barnyard grass
How it was run: (§2)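 Seedlings at 1-2 leaves in 4 cm-deep submerged alluvial soil received emulsion formulations on the water surface, dosed per hectare; effects were judged 3 weeks on.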

bulrush [5] = assay: Test Example 2: weedkilling efficacy, growth period weed treatment in the submerged state; B: bulrush
How it was run: as §2

oval-leafed pondweed [6] = assay: Test Example 2: weedkilling efficacy, growth period weed treatment in the submerged state; C: oval-leafed pondweed
How it was run: as §2

crabgrass [7] = assay: Test Example 3: weedkilling efficacy through soil treatment; D: crabgrass
How it was run: (§3)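 Crop and weed responses were judged three weeks after a uniform surface spray of the water-diluted emulsion at the given g/ha rate. Seeds sat beneath about 1.5 cm of sterilized diluvial soil, and boxes stood in a greenhouse at 25 to 30° C.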

green foxtail [8] = assay: Test Example 3: weedkilling efficacy through soil treatment; E: green foxtail
How it was run: as §3

barnyard grass [9] = assay: Test Example 3: weedkilling efficacy through soil treatment; F: barnyard grass
How it was run: as §3

wild oat [10] = assay: Test Example 3: weedkilling efficacy through soil treatment; G: wild oat
How it was run: as §3

black-grass [11] = assay: Test Example 3: weedkilling efficacy through soil treatment; H: black-grass
How it was run: as §3

Italian ryegrass [12] = assay: Test Example 3: weedkilling efficacy through soil treatment; I: Italian ryegrass
How it was run: as §3

common wind-grass [13] = assay: Test Example 3: weedkilling efficacy through soil treatment; J: common wind-grass
How it was run: as §3

Indian mallow [14] = assay: Test Example 3: weedkilling efficacy through soil treatment; K: Indian mallow
How it was run: as §3

redroot pigweed [15] = assay: Test Example 3: weedkilling efficacy through soil treatment; L: redroot pigweed
How it was run: as §3

fig-leafed goosefoot [16] = assay: Test Example 3: weedkilling efficacy through soil treatment; M: fig-leafed goosefoot
How it was run: as §3

chickweed [17] = assay: Test Example 3: weedkilling efficacy through soil treatment; N: chickweed
How it was run: as §3

birds-eye speedwell [18] = assay: Test Example 3: weedkilling efficacy through soil treatment; p: birds-eye speedwell
How it was run: as §3

directly sown rice [19] = assay: Test Example 3: soil treatment, effect on crop; b: directly sown rice
How it was run: as §3

corn [20] = assay: Test Example 3: soil treatment, effect on crop; c: corn
How it was run: as §3

soybean [21] = assay: Test Example 3: soil treatment, effect on crop; d: soybean
How it was run: as §3

wheat [22] = assay: Test Example 3: soil treatment, effect on crop; e: wheat
How it was run: as §3

beet [23] = assay: Test Example 3: soil treatment, effect on crop; f: beet
How it was run: as §3

rapeseed [24] = assay: Test Example 3: soil treatment, effect on crop; g: rapeseed
How it was run: as §3

crabgrass [25] = assay: Test Example 4: weedkilling efficacy by foliar treatment; D: crabgrass
How it was run: (§4)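 Seeds are spot-sown into sterilized diluvial soil and covered with about 1.5 cm of soil. After 14 days' greenhouse growth at 25 to 30° C, plants are sprayed on stems and leaves with diluted emulsion at the stated g/ha rate, then scored at 3 weeks.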

green foxtail [26] = assay: Test Example 4: weedkilling efficacy by foliar treatment; E: green foxtail
How it was run: as §4

barnyard grass [27] = assay: Test Example 4: weedkilling efficacy by foliar treatment; F: barnyard grass
How it was run: as §4

wild oat [28] = assay: Test Example 4: weedkilling efficacy by foliar treatment; G: wild oat
How it was run: as §4

black-grass [29] = assay: Test Example 4: weedkilling efficacy by foliar treatment; H: black-grass
How it was run: as §4

Italian ryegrass [30] = assay: Test Example 4: weedkilling efficacy by foliar treatment; I: Italian ryegrass
How it was run: as §4

common wind-grass [31] = assay: Test Example 4: weedkilling efficacy by foliar treatment; J: common wind-grass
How it was run: as §4

Indian mallow [32] = assay: Test Example 4: weedkilling efficacy by foliar treatment; K: Indian mallow
How it was run: as §4

redroot pigweed [33] = assay: Test Example 4: weedkilling efficacy by foliar treatment; L: redroot pigweed
How it was run: as §4

fig-leafed goosefoot [34] = assay: Test Example 4: weedkilling efficacy by foliar treatment; M: fig-leafed goosefoot
How it was run: as §4

chickweed [35] = assay: Test Example 4: weedkilling efficacy by foliar treatment; N: chickweed
How it was run: as §4

catchweed = assay: Test Example 4: weedkilling efficacy by foliar treatment; O: catchweed
How it was run: as §4

birds-eye speedwell [36] = assay: Test Example 4: weedkilling efficacy by foliar treatment; p: birds-eye speedwell
How it was run: as §4

directly sown rice [37] = assay: Test Example 4: foliar treatment, effect on crop; b: directly sown rice
How it was run: as §4

corn [38] = assay: Test Example 4: foliar treatment, effect on crop; c: corn
How it was run: as §4

soybean [39] = assay: Test Example 4: foliar treatment, effect on crop; d: soybean
How it was run: as §4

wheat [40] = assay: Test Example 4: foliar treatment, effect on crop; e: wheat
How it was run: as §4

beet [41] = assay: Test Example 4: foliar treatment, effect on crop; f: beet
How it was run: as §4

rapeseed [42] = assay: Test Example 4: foliar treatment, effect on crop; g: rapeseed
How it was run: as §4

CC1=C(c2ccccc2)C(=O)N(C(C)(C)C(=O)Nc2cc(C(F)(F)F)cc(F)n2)CO1 [B-2-40]
A (barnyard grass) weedkilling efficacy grade (barnyard grass [1]): 5 (weed kill ratio 90% or more, (practically complete withering))
B (bulrush) weedkilling efficacy grade (bulrush [2]): 5 (weed kill ratio 90% or more, (practically complete withering))
C (oval-leafed pondweed) weedkilling efficacy grade (oval-leafed pondweed [3]): 5 (weed kill ratio 90% or more, (practically complete withering))
a (transplanted rice) effect on crop grade (transplanted rice): 3 (weed kill ratio 40% or more, less than 70%)
A (barnyard grass) weedkilling efficacy grade (barnyard grass [4]): 5 (weed kill ratio 90% or more, (practically complete withering))
B (bulrush) weedkilling efficacy grade (bulrush [5]): 5 (weed kill ratio 90% or more, (practically complete withering))
C (oval-leafed pondweed) weedkilling efficacy grade (oval-leafed pondweed [6]): 5 (weed kill ratio 90% or more, (practically complete withering))
D (crabgrass) weedkilling efficacy grade (crabgrass [7]): 5 (weed kill ratio 90% or more, (practically complete withering))
E (green foxtail) weedkilling efficacy grade (green foxtail [8]): 5 (weed kill ratio 90% or more, (practically complete withering))
F (barnyard grass) weedkilling efficacy grade (barnyard grass [9]): 5 (weed kill ratio 90% or more, (practically complete withering))
G (wild oat) weedkilling efficacy grade (wild oat [10]): 5 (weed kill ratio 90% or more, (practically complete withering))
H (black-grass) weedkilling efficacy grade (black-grass [11]): 5 (weed kill ratio 90% or more, (practically complete withering))
I (Italian ryegrass) weedkilling efficacy grade (Italian ryegrass [12]): 5 (weed kill ratio 90% or more, (practically complete withering))
J (common wind-grass) weedkilling efficacy grade (common wind-grass [13]): 5 (weed kill ratio 90% or more, (practically complete withering))
K (Indian mallow) weedkilling efficacy grade (Indian mallow [14]): 5 (weed kill ratio 90% or more, (practically complete withering))
L (redroot pigweed) weedkilling efficacy grade (redroot pigweed [15]): 4 (weed kill ratio 70% or more, less than 90%)
M (fig-leafed goosefoot) weedkilling efficacy grade (fig-leafed goosefoot [16]): 5 (weed kill ratio 90% or more, (practically complete withering))
N (chickweed) weedkilling efficacy grade (chickweed [17]): 4 (weed kill ratio 70% or more, less than 90%)
P (birds-eye speedwell) weedkilling efficacy grade (birds-eye speedwell [18]): 5 (weed kill ratio 90% or more, (practically complete withering))
b (directly sown rice) effect on crop grade (directly sown rice [19]): 5 (weed kill ratio 90% or more, (practically complete withering))
c (corn) effect on crop grade (corn [20]): 0 (weed kill ratio 5% or less (practically no effect))
d (soybean) effect on crop grade (soybean [21]): 2 (weed kill ratio 20% or more, less than 40%)
e (wheat) effect on crop grade (wheat [22]): 0 (weed kill ratio 5% or less (practically no effect))
f (beet) effect on crop grade (beet [23]): 3 (weed kill ratio 40% or more, less than 70%)
g (rapeseed) effect on crop grade (rapeseed [24]): 4 (weed kill ratio 70% or more, less than 90%)
D (crabgrass) weedkilling efficacy grade (crabgrass [25]): 5 (weed kill ratio 90% or more, (practically complete withering))
E (green foxtail) weedkilling efficacy grade (green foxtail [26]): 5 (weed kill ratio 90% or more, (practically complete withering))
F (barnyard grass) weedkilling efficacy grade (barnyard grass [27]): 5 (weed kill ratio 90% or more, (practically complete withering))
G (wild oat) weedkilling efficacy grade (wild oat [28]): 5 (weed kill ratio 90% or more, (practically complete withering))
H (black-grass) weedkilling efficacy grade (black-grass [29]): 5 (weed kill ratio 90% or more, (practically complete withering))
I (Italian ryegrass) weedkilling efficacy grade (Italian ryegrass [30]): 5 (weed kill ratio 90% or more, (practically complete withering))
J (common wind-grass) weedkilling efficacy grade (common wind-grass [31]): 5 (weed kill ratio 90% or more, (practically complete withering))
K (Indian mallow) weedkilling efficacy grade (Indian mallow [32]): 5 (weed kill ratio 90% or more, (practically complete withering))
L (redroot pigweed) weedkilling efficacy grade (redroot pigweed [33]): 5 (weed kill ratio 90% or more, (practically complete withering))
M (fig-leafed goosefoot) weedkilling efficacy grade (fig-leafed goosefoot [34]): 5 (weed kill ratio 90% or more, (practically complete withering))
N (chickweed) weedkilling efficacy grade (chickweed [35]): 4 (weed kill ratio 70% or more, less than 90%)
O (catchweed) weedkilling efficacy grade (catchweed): 5 (weed kill ratio 90% or more, (practically complete withering))
P (birds-eye speedwell) weedkilling efficacy grade (birds-eye speedwell [36]): 4 (weed kill ratio 70% or more, less than 90%)
b (directly sown rice) effect on crop grade (directly sown rice [37]): 5 (weed kill ratio 90% or more, (practically complete withering))
c (corn) effect on crop grade (corn [38]): 5 (weed kill ratio 90% or more, (practically complete withering))
d (soybean) effect on crop grade (soybean [39]): 5 (weed kill ratio 90% or more, (practically complete withering))
e (wheat) effect on crop grade (wheat [40]): 1 (weed kill ratio 5% or more, less than 20%)
f (beet) effect on crop grade (beet [41]): 4 (weed kill ratio 70% or more, less than 90%)
g (rapeseed) effect on crop grade (rapeseed [42]): 4 (weed kill ratio 70% or more, less than 90%)
